Measured values reported in US9394285B2 (Pfizer Inc., priority 2013, dated 2016).
pEC50: −log10 of the molar value.

Target: human AMPK (full-length γ1, β1 and α1 subunits) (Homo sapiens (Human), UniProt Q13131+Q9Y478)
Experiment: AMPK in vitro biochemical assay (33P-based, SAMS peptide, PP2A dephosphorylation)
Conditions: for pEC50: activation of phosphorylated AMPK, 33P-ATP, SAMS peptide, PP2A treatment, 4-parameter fit; for Emax: counts as % of positive control wells (enzyme, allosteric activator or AMP, PP2A and substrate), read-out: Maximum
Excerpt: We designed a tricistronic AMPK expression construct that included open reading frames encoding the full-length γ1, β1 and α1 subunits of human AMPK with a ribosome-binding site (RBS) ahead of each coding region and subcloned this into pET-14b expression vector (Novagen, Madison, Wis.) using standard molecular biology techniques. AMPK tricistronic construct was transformed into E. coli BL21-CodonPlus™ (DE3)-RIPL strain (Stratagene) and transformants were selected on LB (Luria-Bertani) agar plates containing ampicillin (100 μg/ml). […] Optical density sample measurements were made on an UltroSpec 2000 spectrophotometer (Pharmacia Biotech) at 600 nm. When the cell density reached ˜0.9 OD, the temperature was reduced to 18° C. and the culture was induced at 18° C. with 0.1 mM Isopropylthiogalactoside (IPTG). […] The cell pellets were aliquoted into four portions, flash frozen in liquid nitrogen and were stored at −80° C. until purification. For purification, frozen cell paste was thawed and resuspended in 50 ml lysis buffer (50 mM Tris, pH 8.0, 150 mM NaCl, 10% glycerol, 2 mM Tris-2-carboxyethyl phosphine (TCEP), 20 mM imidazole and 0.001% Triton X-100). After sonication, insoluble material was removed by centrifugation at 15,000 rpm in a Sorvall® RC5 plus centrifuge for 30 min at 4° C. and the supernatant was loaded onto a 5 ml HisTrap™ HP column (GE Healthcare, Piscataway, N.J.) and washed with five column volumes of lysis buffer. Bound proteins were eluted using an elution buffer containing 300 mM imidazole. Fractions containing AMPK subunits were pooled based on SDS-10% PAGE analysis and dialyzed overnight in dialysis buffer (50 mM Tris, pH 8.0, 150 mM NaCl, 10% glycerol, 2 mM TCEP, and 0.001% Triton X-100). […] The phosphorylated AMPK complex was re-purified on HisTrap™ HP column as before, dialyzed over night in dialysis buffer. The phosphorylated AMPK complex was further purified by gel filtration chromatography with a Superdex 200 HiLoad 16/60 column (GE Healthcare) in SEC buffer (50 mM Tris, pH 8.0, 150 mM NaCl, 10% glycerol, 2 mM TCEP, and 0.001% Triton X-100).
The harvest time (72 hours post infection) was indicated by percent cell viability (to 85-90%) and increased cell diameter (3-4 μm). […] For purification, the cell paste was resuspended in 500 mL lysis buffer (50 mM Tris pH 8.0, 150 mM NaCl, 25 mM imidazole, 10% glycerol, 2 mM MgCl2, 2 mM TCEP+protease inhibitor cocktail. After lysis, cellular debris was removed by centrifugation at 36K×g for 1 hour. The resulting supernatant was filtered at 0.2 micron before applying to a 1 mL nickel charged IMAC column (HisTrap, GE). The bound resin was washed to baseline with 50 CV of 50 mM Tris pH 8.0, 150 mM NaCl, 25 mM imidazole, 10% glycerol, 2 mM MgCl2, 2 mM TCEP before eluting over a 20 CV gradient to 100% with wash buffer containing 500 mM imidazole. Pooled fractions containing PP2A were combined and diluted 10× with 50 mM Tris pH 8.0, 10% glycerol, 1 mM TCEP and applied to a 1 mL AIEX resin (HiTrap QFF, GE). The bound resin was washed with dilution buffer and PP2A was eluted over a 20 CV gradient to 100% 50 mM Tris pH 8.0, 500 mM NaCl, 10% glycerol, 1 mM TCEP and was further diluted 1:1 with 50 mM Tris pH 8.0, 150 mM NaCl, 10% glycerol, and 1 mM TCEP buffer.
The biochemical EC50 (half-maximal concentration required for full activation) of compounds for the activation of AMPK was evaluated by ^33P-based assay using SAMS peptide (commercially available) derived from ACC-1. Twenty μl of phosphorylated AMPK diluted in assay buffer, (50 mM HEPES, 1 mM EGTA, 10 mM MgCl2, 0.25 mM DTT, 0.01% Tween-20, 0.01% BSA (pH 7.5)) was added to 384 well plates containing 1 μL of test compound. Following a fifteen minute room temperature incubation, 10 μL of protein phosphatase PP2A was added to the plate to dephosphorylate pThr172 of AMPK. […] The reaction was terminated after 60 minutes incubation at room temperature by the addition of 15 μL of 2% H3PO4.

Chain of human AMPK (full-length γ1, β1 and α1 subunits) (Q13131 whole entry): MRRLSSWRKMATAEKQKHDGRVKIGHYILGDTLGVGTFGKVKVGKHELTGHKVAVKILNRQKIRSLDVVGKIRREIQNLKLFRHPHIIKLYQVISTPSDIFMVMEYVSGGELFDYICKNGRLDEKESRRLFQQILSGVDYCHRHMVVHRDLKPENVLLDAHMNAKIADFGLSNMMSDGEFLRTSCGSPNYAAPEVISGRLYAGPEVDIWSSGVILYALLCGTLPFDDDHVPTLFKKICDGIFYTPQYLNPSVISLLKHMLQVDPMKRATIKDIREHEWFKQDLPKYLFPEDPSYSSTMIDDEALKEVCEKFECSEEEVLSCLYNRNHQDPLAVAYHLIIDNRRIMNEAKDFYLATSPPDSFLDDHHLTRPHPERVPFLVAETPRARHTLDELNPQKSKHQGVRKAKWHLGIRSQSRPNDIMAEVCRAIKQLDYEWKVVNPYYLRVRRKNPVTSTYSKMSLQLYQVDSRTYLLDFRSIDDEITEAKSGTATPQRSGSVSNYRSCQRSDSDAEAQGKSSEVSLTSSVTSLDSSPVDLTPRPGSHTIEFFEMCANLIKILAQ
Chain of human AMPK (full-length γ1, β1 and α1 subunits) (Q9Y478 whole entry): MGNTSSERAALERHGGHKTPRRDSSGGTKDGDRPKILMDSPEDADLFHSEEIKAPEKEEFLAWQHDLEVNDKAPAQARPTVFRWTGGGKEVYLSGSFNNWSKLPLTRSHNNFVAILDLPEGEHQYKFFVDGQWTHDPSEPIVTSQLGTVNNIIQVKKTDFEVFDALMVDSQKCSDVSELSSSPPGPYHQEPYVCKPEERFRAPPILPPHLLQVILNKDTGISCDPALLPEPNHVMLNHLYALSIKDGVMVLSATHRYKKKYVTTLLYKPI
Chain of human AMPK (full-length γ1, β1 and α1 subunits) (P54619 whole entry partner): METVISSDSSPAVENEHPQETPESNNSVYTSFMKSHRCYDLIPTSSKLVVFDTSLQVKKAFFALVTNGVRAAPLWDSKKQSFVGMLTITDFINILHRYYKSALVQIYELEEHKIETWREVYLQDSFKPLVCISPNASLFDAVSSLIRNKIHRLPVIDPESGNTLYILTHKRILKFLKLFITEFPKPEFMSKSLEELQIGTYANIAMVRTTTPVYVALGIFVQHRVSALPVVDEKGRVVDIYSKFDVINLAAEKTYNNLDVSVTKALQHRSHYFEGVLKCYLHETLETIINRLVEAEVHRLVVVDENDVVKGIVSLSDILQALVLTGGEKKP

Row | pEC50 | Emax [%] | Structure (SMILES)
1 | 7.42 | 91 | O=C(O)c1c[nH]c2cc(Cl)c(-c3ccc(OCCCN4CCNCC4)cc3)cc12 [Example 52, 6-chloro-5-{4-[3-(piperazin-1-yl)propoxy]phenyl}-1H-indole-3-carboxylic acid]
2 | 7.66 | 120 | CN1CCN(CCCOc2ccc(-c3cc4c(C(=O)O)c[nH]c4cc3Cl)cc2)CC1 [Example 53, 6-chloro-5-{4-[3-(4-methylpiperazin-1-yl)propoxy]phenyl}-1H-indole-3-carboxylic acid]
3 | 7.19 | 107 | O=C(O)c1c[nH]c2cc(Cl)c(-c3ccc4c(c3)OCC4)cc12 [Example 57, 6-chloro-5-(2,3-dihydrobenzofuran-6-yl)-1H-indole-3-carboxylic acid]
4 | 6.77 | 82 | O=C(O)c1c[nH]c2cc(Cl)c(-c3ccc(N4CCCC4=O)cc3)cc12 [Example 64, 6-chloro-5-[4-(2-oxopyrrolidin-1-yl)phenyl]-1H-indole-3-carboxylic acid]
5 | 8.37 | 117 | O=C(O)c1c[nH]c2cc(Br)c(-c3ccc(-c4ccccc4O)cc3)cc12 [Example 68, 6-Bromo-5-(2′-hydroxybiphenyl-4-yl)-1H-indole-3-carboxylic acid]
6 | 7.11 | 106 | NC(=O)COc1ccc(-c2cc3c(C(=O)O)c[nH]c3cc2Cl)cc1 [Example 70, 5-[4-(2-amino-2-oxoethoxy)phenyl]-6-chloro-1H-indole-3-carboxylic acid]
7 | 8.37 | 107 | O=C(O)c1c[nH]c2cc(Cl)c(-c3ccc(C4(CO)CCC4)cc3)cc12 [Example 72, 6-chloro-5-{4-[1-(hydroxymethyl)cyclobutyl]phenyl}-1H-indole-3-carboxylic acid]
8 | 6.68 | 89 | O=C(O)c1c[nH]c2cc(Cl)c(-c3ccc(CC(=O)N4CCOCC4)cc3)cc12 [Example 77, 6-chloro-5-{4-[2-(morpholin-4-yl)-2-oxoethyl]phenyl}-1H-indole-3-carboxylic acid]
9 | 6.98 | 102 | O=C1COC(c2ccc(-c3cc4c(C(=O)O)c[nH]c4cc3Cl)cc2)CN1 (centres unmarked) [Example 79, 6-chloro-5-[4-(5-oxomorpholin-2-yl)phenyl]-1H-indole-3-carboxylic acid]

Second part, the compound before the results:

Row | Structure (SMILES) | pEC50 | Emax [%]
10 | Cc1ccc(-c2cc3c(C(=O)O)c[nH]c3cc2Cl)cc1 [Example 51, 6-chloro-5-(4-methylphenyl)-1H-indole-3-carboxylic acid] | 6.49 | 93
11 | O=C(O)c1c[nH]c2cc(Cl)c(-c3ccc(OCCCN4CCOCC4=O)cc3)cc12 [Example 54, 6-chloro-5-{4-[3-(3-oxomorpholin-4-yl)propoxy]phenyl}-1H-indole-3-carboxylic acid] | 7.49 | 74
12 | COc1cc(-c2cc3c(C(=O)O)c[nH]c3cc2Cl)ccc1OC[C@@H]1CCCN1 [Example 55, (S)-6-Chloro-5-(3-methoxy-4-(pyrrolidin-2-ylmethoxy)phenyl)-1H-indole-3-carboxylic acid] | 6.68 | 87
13 | COc1cc(-c2cc3c(C(=O)O)c[nH]c3cc2Cl)ccc1C(C)(C)O [Example 56, 6-chloro-5-(4-(2-hydroxypropan-2-yl)-3-methoxyphenyl)-1H-indole-3-carboxylic acid] | 6.48 | 137
14 | O=C(O)c1c[nH]c2cc(Cl)c(-c3ccc(OCCCO)c(F)c3)cc12 [Example 58, 6-chloro-5-[3-fluoro-4-(3-hydroxypropoxy)phenyl]-1H-indole-3-carboxylic acid] | 7.05 | 107
15 | COc1cc(-c2cc3c(C(=O)O)c[nH]c3cc2Cl)ccc1OCCCO [Example 59, 6-chloro-5-[4-(3-hydroxypropoxy)-3-methoxyphenyl]-1H-indole-3-carboxylic acid] | 6.88 | 75
16 | COc1cc(-c2cc3c(C(=O)O)c[nH]c3cc2Cl)ccc1C1(O)COC1 [Example 60, 6-chloro-5-[4-(3-hydroxyoxetan-3-yl)-3-methoxyphenyl]-1H-indole-3-carboxylic acid] | 8.11 | 65
17 | COc1cc(-c2cc3c(C(=O)O)c[nH]c3cc2Cl)ccc1C1(O)CCC1 [Example 61, 6-chloro-5-[4-(1-hydroxycyclobutyl)-3-methoxyphenyl]-1H-indole-3-carboxylic acid] | 8.64 | 57
18 | COc1cc(C2(O)CCC2)ccc1-c1cc2c(C(=O)O)c[nH]c2cc1Cl [Example 62, 6-chloro-5-[4-(1-hydroxycyclobutyl)-2-methoxyphenyl]-1H-indole-3-carboxylic acid] | 7.48 | 74
19 | O=C(O)c1c[nH]c2cc(Cl)c(-c3ccc(C4CCN4)cc3)cc12 (centres unmarked) [Example 63, 5-(4-azetidin-2-yl-phenyl)-6-chloro-1H-indole-3-carboxylic acid] | 6.36 | 89
20 | CC(=O)N1CCC(c2ccc(-c3cc4c(C(=O)O)c[nH]c4cc3Cl)cc2)CC1 [Example 65, 5-[4-(1-acetylpiperidin-4-yl)phenyl]-6-chloro-1H-indole-3-carboxylic acid] | 6.87 | 103
21 | O=C(O)c1c[nH]c2cc(Cl)c(-c3ccc(-c4ccccc4O)cc3)cc12 [Example 67, 6-chloro-5-(2′-hydroxybiphenyl-4-yl)-1H-indole-3-carboxylic acid] | 8.62 | 112
22 | N#Cc1cc(C2(O)CCC2)ccc1-c1cc2c(C(=O)O)c[nH]c2cc1Cl [Example 69, 6-chloro-5-[2-cyano-4-(1-hydroxycyclobutyl)phenyl]-1H-indole-3-carboxylic acid] | 6.58 | 74
23 | O=C(O)c1c[nH]c2cc(Cl)c(-c3ccc(CCO)cc3)cc12 [Example 71, 6-chloro-5-[4-(2-hydroxyethyl)phenyl]-1H-indole-3-carboxylic acid] | 7.85 | 75
24 | CN(C)c1ncc(-c2cc3c(C(=O)O)c[nH]c3cc2Cl)cn1 [Example 73, 6-chloro-5-[2-(dimethylamino)pyrimidin-5-yl]-1H-indole-3-carboxylic acid] | 6.10 | 118
25 | CN1CCC(c2ccc(-c3cc4c(C(=O)O)c[nH]c4cc3Cl)cc2)C1 (centres unmarked) [Example 74, 6-chloro-5-[4-(1-methylpyrrolidin-3-yl)phenyl]-1H-indole-3-carboxylic acid] | 7.35 | 110
26 | O=C(O)c1c[nH]c2cc(Cl)c(-c3ccc(C4(CO)CC4)cc3)cc12 [Example 75, 6-chloro-5-{4-[1-(hydroxymethyl)cyclopropyl]phenyl}-1H-indole-3-carboxylic acid] | 9.30 | 91
27 | O=C(O)c1c[nH]c2cc(Cl)c(-c3cnc(N4CCOCC4)nc3)cc12 [Example 76, 6-chloro-5-[2-(morpholin-4-yl)pyrimidin-5-yl]-1H-indole-3-carboxylic acid] | 6.57 | 104
28 | O=C(O)c1c[nH]c2cc(Cl)c(-c3ccc(C4(C(=O)O)CCC4)cc3)cc12 [Example 78, 5-[4-(1-carboxycyclobutyl)phenyl]-6-chloro-1H-indole-3-carboxylic acid] | 5.70 | 68
